The source of these data is US8785459B2, “Quinazoline compounds as kinase inhibitors” (Development Center for Biotechnology, priority 2011, dated 2014).

Some results are limits rather than exact numbers.

For one assay, the target named is B-Raf (V600E) (Homo sapiens (Human), UniProt P15056, V600E). The assay is described as follows: Raf kinase assay (B-Raf (V600E)), [33P] incorporation into MEK1(K97R). The assay is classed as biochemical. In short, it runs like this:
(§1)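 [33P] transfer to kinase-dead MEK1(K97R) substrate (500 ng) measured after 30 min at 30 °C in Tris pH 7.5 buffer containing 8 μM ATP. Enzyme inputs were 2 ng for C-Raf and 5 ng for B-Raf and B-Raf V600E. Duplicate 3-fold serial dilutions gave the half-maximal inhibitory concentration.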

The subject of the next assay is A549. The assay is described as follows: Anti-proliferative activity, CellTiter-96 assay, A549. The settings on record: Homo sapiens, A549 cells, 72 hours incubation. The assay is classed as cell-based. How it is done: (§2) Antiproliferative Activity
(§3) The anti-proliferative activities of the compounds with formula (I) and formula (II) with respect to four human cancer cell lines (A549, A375, MDA-MB-231, and COLO205) were measured using the CellTiter™-96 assay kit (Promega) following the manufacturer's instructions. In brief, the cells were maintained in DMEM containing 10% FCS and incubated at 37° C. in 5% CO2 atmosphere. Cells were plated at a density of 2000 cells/well of a 96-well plate for 24 h, then treated with different concentrations of the compounds, and incubated for another 72 hours. At the end of the incubation, CellTiter™-96 Aqueous One Solution Reagent (Promega) was added and incubated for another 4.0 hours. Cell viability was determined by measuring absorbance at 490 nm using EMax® microplate reader (Molecular Devices). Data were processed and analyzed using GraphPad Prism version 4.

The test system of another assay is A375. Nature of the assay: Anti-proliferative activity, CellTiter-96 assay, A375. The class given is cell-based. The settings on record: Homo sapiens, A-375, A375 cells, 72 hours incubation. The method, then: as §2, §3
The target in the next assay is C-Raf (Homo sapiens (Human), UniProt P04049). Nature of the assay: Raf kinase assay (C-Raf), [33P] incorporation into MEK1(K97R). The class given is biochemical. The method in brief: as §1
For a further assay, the target named is B-Raf (Homo sapiens (Human), UniProt P15056). The assay is described as follows: Raf kinase assay (B-Raf), [33P] incorporation into MEK1(K97R). The assay is classed as biochemical. The settings on record: for inhibition at 1 µM: 1.0 μM compound, read-out: B-Raf inhibition at 1.0 μM. In short, it runs like this: as §1
A further assay deals with MDA-MB-231. The assay is described as follows: Anti-proliferative activity, CellTiter-96 assay, MDA-MB-231. The class given is cell-based. The settings on record: Homo sapiens, MDA-MB-231 cells, 72 hours incubation. The method, then: as §2, §3
A further assay deals with COLO205. Nature of the assay: Anti-proliferative activity, CellTiter-96 assay, COLO205. The assay is classed as cell-based. As to conditions: Homo sapiens, COLO 205, COLO205 cells, 72 hours incubation. The method, then: as §2, §3

Sequence of B-Raf (P15056 whole entry): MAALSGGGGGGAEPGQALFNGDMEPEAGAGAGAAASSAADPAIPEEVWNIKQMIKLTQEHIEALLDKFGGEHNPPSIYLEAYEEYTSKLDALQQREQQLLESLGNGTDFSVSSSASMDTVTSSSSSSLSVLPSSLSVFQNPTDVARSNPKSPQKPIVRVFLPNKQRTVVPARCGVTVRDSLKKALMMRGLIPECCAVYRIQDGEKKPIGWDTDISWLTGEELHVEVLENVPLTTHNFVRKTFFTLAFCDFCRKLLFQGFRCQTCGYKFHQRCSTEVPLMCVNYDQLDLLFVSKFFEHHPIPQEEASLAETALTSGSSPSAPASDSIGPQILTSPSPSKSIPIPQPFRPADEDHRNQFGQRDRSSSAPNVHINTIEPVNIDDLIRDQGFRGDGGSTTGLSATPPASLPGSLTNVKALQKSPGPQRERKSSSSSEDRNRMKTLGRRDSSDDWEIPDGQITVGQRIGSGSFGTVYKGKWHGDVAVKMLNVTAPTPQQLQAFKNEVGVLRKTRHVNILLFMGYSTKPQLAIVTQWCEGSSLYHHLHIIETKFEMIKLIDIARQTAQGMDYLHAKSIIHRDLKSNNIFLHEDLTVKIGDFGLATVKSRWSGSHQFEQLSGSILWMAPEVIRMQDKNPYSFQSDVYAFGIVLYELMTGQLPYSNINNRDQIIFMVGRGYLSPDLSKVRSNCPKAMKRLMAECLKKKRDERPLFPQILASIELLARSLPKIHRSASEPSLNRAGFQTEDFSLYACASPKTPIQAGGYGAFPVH
Sequence of B-Raf (V600E) (P15056 whole entry V600E): as the sequence (P15056 whole entry) above, with V600E counted along it
Sequence of C-Raf (P04049 whole entry): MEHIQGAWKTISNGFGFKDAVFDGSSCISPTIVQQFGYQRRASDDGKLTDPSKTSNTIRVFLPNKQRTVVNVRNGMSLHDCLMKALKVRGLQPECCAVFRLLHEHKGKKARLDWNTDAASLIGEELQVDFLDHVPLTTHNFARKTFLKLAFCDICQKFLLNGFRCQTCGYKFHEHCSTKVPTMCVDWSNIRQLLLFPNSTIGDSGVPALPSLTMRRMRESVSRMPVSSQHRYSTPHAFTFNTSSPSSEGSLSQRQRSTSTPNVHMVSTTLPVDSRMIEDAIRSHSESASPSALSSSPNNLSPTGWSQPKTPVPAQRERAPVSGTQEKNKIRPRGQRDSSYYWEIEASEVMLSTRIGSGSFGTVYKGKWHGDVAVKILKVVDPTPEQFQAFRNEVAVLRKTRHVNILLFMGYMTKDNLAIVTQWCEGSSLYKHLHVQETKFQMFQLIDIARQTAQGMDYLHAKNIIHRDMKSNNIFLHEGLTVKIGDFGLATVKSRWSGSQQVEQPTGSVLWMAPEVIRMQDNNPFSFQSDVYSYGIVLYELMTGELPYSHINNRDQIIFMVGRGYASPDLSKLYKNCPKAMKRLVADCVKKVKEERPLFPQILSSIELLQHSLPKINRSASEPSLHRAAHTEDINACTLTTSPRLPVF

In general, IC50 refers to the concentration needed to halve the response being measured. Read a high IC50 as a need for much substance. A word on the inhibition: it is the share of the control response that was lost under treatment. As for `NC(=O)c1cccc(-c2ccc3nccc(Nc4cccc5[nH]ncc45)c3c2)c1` [Compound 117, 3-(4-(1H-indazol-4-ylamino)quinolin-6-yl)benzamide], the IC50 turned out to be 114 nM on B-Raf (V600E); 23.5 ± 0.5 µM in the assay with A549; 23.7 ± 2.4 µM in the assay with A375; 321 nM at C-Raf; 107 nM against B-Raf; 13.6 ± 0.9 µM in the assay with MDA-MB-231. The molecule also returned an IC50 with COLO205 of 8.9 ± 0.1 µM. Also, the inhibition at 1 µM on B-Raf was 86.6%.
Take `CS(=O)(=O)c1ccc(-c2ccc3nccc(Nc4cccc5[nH]ncc45)c3c2)cc1` [Compound 120, N-(1H-indazol-4-yl)-6-(4-(methylsulfonyl)phenyl)quinolin-4-amine]: the IC50 at B-Raf (V600E) stood at 119 nM; in the assay with A549, 12.1 ± 3.2 µM; with A375, 8.5 ± 1.2 µM; against C-Raf it was 277 nM; at B-Raf, 134 nM; in the assay with MDA-MB-231, 10.9 ± 1.4 µM. In the assay with COLO205, this molecule had an IC50 of 7.3 ± 1 µM. The inhibition at 1 µM at B-Raf stood at 88.2%.
In the case of `Oc1ccc(-c2ccc3nccc(Nc4cccc5[nH]ncc45)c3c2)cc1` [Compound 124, 4-(4-(1H-indazol-4-ylamino)quinolin-6-yl)phenol], the IC50 against B-Raf (V600E) is 185 nM; in the assay on A549, 6.1 ± 0.6 µM; in the assay on A375 it was 7.3 ± 0.6 µM; against C-Raf it was 409 nM; against B-Raf, 188 nM; with MDA-MB-231, 8.5 ± 1.4 µM. Also, the midpoint of inhibition in the assay on COLO205, the IC50, lay at 9.6 ± 0.6 µM. At B-Raf, the inhibition at 1 µM was found to be 82.4%.
Turning to `COc1cc(-c2ccc3ncnc(Nc4cccc5[nH]nc(Cl)c45)c3c2)ccc1O` [Compound 126, 4-(4-(3-chloro-1H-indazol-4-ylamino)quinazolin-6-yl)-2-methoxyphenol], the IC50 against B-Raf (V600E) stood at 162 nM; with A549, 2.7 ± 1.7 µM; in the assay with A375, 2.9 ± 1.6 µM; at C-Raf, 287 nM; against B-Raf, 142 nM; with MDA-MB-231, 2.4 ± 1.1 µM. For the same molecule, in the assay on COLO205, the midpoint of inhibition, the IC50, lay at 16.8 ± 9.3 µM. The inhibition at 1 µM on B-Raf is 83.6%.
With `Oc1cccc(Nc2ncnc3ccc(-c4ccccc4)cc23)c1` [Compound 133, 3-(6-phenylquinazolin-4-ylamino)phenol], the IC50 stood at 254 nM against B-Raf (V600E); 9.3 ± 1.3 µM with A549; 6 ± 1 µM with A375; 6640 nM at C-Raf; 168 nM on B-Raf; 33.8 ± 6.9 µM in the assay on MDA-MB-231. For the same molecule, in the assay on COLO205, the IC50 was determined as 11.5 ± 0.8 µM. Further, at B-Raf, the inhibition at 1 µM was 85.8%.
As to `Nc1ccc(F)c(-c2ccc3nccc(Nc4cccc5[nH]ncc45)c3c2)c1` [Compound 137, 6-(5-amino-2-fluorophenyl)-N-(1H-indazol-4-yl)quinolin-4-amine], the IC50 against B-Raf (V600E) turned out to be 152 nM; in the assay on A549 it was 10.8 ± 0.7 µM; in the assay on A375, 23.6 ± 1.2 µM; against C-Raf, 1330 nM; at B-Raf, 149 nM; with MDA-MB-231 it was 19.5 ± 2.1 µM. In the assay on COLO205, the IC50 was 8.3 ± 0.4 µM. The inhibition at 1 µM at B-Raf amounted to 78.2%.
Consider `COc1cc(-c2ccc3ncnc(Nc4cc(O)ccc4C)c3c2)ccc1O` [Compound 154, 4-(4-(5-hydroxy-2-methylphenylamino)quinazolin-6-yl)-2-methoxyphenol], for which the IC50 is 70.9 nM on B-Raf (V600E); 0.9 ± 0.5 µM in the assay on A549; 1 ± 0.2 µM in the assay on A375; 590 nM against C-Raf; 60 nM on B-Raf; 1 ± 0.1 µM in the assay with MDA-MB-231. In the assay with COLO205, this molecule gave an IC50 of 6.4 ± 0.6 µM. Further, the inhibition at 1 µM at B-Raf came to 88.4%.
On to `COc1cc(-c2ccc3ncnc(Nc4cc(O)c(C)cc4F)c3c2)ccc1O` [Compound 156, 4-fluoro-5-(6-(4-hydroxy-3-methoxyphenyl)quinazolin-4-ylamino)-2-methylphenol], for which the IC50 worked out at 81.7 nM on B-Raf (V600E); 1.6 ± 0.4 µM in the assay with A549; 1.9 ± 0.3 µM with A375; 301 nM at C-Raf; 57.3 nM on B-Raf; 2.8 ± 0.2 µM with MDA-MB-231. This molecule yielded an IC50 with COLO205 of 9.6 ± 3.8 µM. Further, at B-Raf, the inhibition at 1 µM worked out at 92.4%.
Regarding `COc1cc(-c2ccc3ncnc(Nc4ccc(Cl)c(O)c4)c3c2)ccc1O` [Compound 157, 4-(4-(4-chloro-3-hydroxyphenylamino)quinazolin-6-yl)-2-methoxyphenol], the IC50 was 37.5 nM on B-Raf (V600E); 2.5 ± 0.8 µM with A549; 2.9 ± 0.6 µM with A375; 161 nM against C-Raf; 26.8 nM against B-Raf; 4.7 ± 0.3 µM in the assay with MDA-MB-231. In addition, inhibition in the assay on COLO205 was half-maximal at 7.8 µM (IC50). Moreover, the inhibition at 1 µM on B-Raf worked out at 92%.
Consider `COc1cc(-c2ccc3ncnc(Nc4cc(O)c(F)cc4F)c3c2)ccc1O` [Compound 158, 2,4-difluoro-5-(6-(4-hydroxy-3-methoxyphenyl)quinazolin-4-ylamino)phenol], for which the IC50 against B-Raf (V600E) stood at 7.1 nM; in the assay with A549, 0.9 ± 0.4 µM; in the assay with A375, 0.4 ± 0.1 µM; against C-Raf it was 36.3 nM; at B-Raf, 3.8 nM; in the assay with MDA-MB-231, 1.2 ± 0.1 µM. The same molecule showed an IC50 with COLO205 of 5.1 ± 1 µM. Besides, the inhibition at 1 µM at B-Raf is 96.4%.
On to `COc1cc(-c2ccc3ncnc(Nc4cc(O)c(Cl)cc4F)c3c2)ccc1O` [Compound 159, 2-chloro-4-fluoro-5-(6-(4-hydroxy-3-methoxyphenyl)quinazolin-4-ylamino)phenol], for which the IC50 against B-Raf (V600E) is 19.7 nM; with A549 it was 2.9 ± 0.4 µM; in the assay on A375, 2.3 ± 0.5 µM; on C-Raf, 69.2 nM; at B-Raf, 11.1 nM; in the assay with MDA-MB-231, 4.3 ± 0.6 µM. For the same molecule, the IC50 in the assay with COLO205 is 7.9 ± 1.9 µM. Further, at B-Raf, the inhibition at 1 µM was found to be 97.4%.
Take `Oc1cc(Nc2ncnc3ccc(-c4ccc(Cl)cc4)cc23)c(F)cc1F` [Compound 160, 5-(6-(4-chlorophenyl)quinazolin-4-ylamino)-2,4-difluorophenol]: the IC50 against B-Raf (V600E) was 19 nM; with A549 it was over 30 µM; with A375, 8.2 ± 1.3 µM; against C-Raf it was 147 nM; against B-Raf, 8.9 nM; in the assay on MDA-MB-231, over 30 µM. In the assay with COLO205, this molecule displayed an IC50 of 20.9 ± 12.6 µM. Moreover, at B-Raf, the inhibition at 1 µM came out at 97.9%.
As for `COc1cc(-c2ccc3ncnc(Nc4ccc(F)c(O)c4)c3c2)ccc1O` [Compound 161, 4-(4-(4-fluoro-3-hydroxyphenylamino)quinazolin-6-yl)-2-methoxyphenol], the IC50 on B-Raf (V600E) was found to be 23.4 nM; with A549, 1.5 ± 0.3 µM; in the assay on A375, 1 ± 0.1 µM; against C-Raf, 133 nM; against B-Raf, 16.9 nM; in the assay with MDA-MB-231, 2.1 ± 0.5 µM. In the assay with COLO205, this molecule had a concentration for half-maximal inhibition (IC50) of 5.2 ± 1.8 µM. The inhibition at 1 µM on B-Raf came out at 94.7%.
As for `COc1cc(-c2ccc3ncnc(Nc4ccc(F)c(O)c4F)c3c2)ccc1O` [Compound 162, 2,6-difluoro-3-(6-(4-hydroxy-3-methoxyphenyl)quinazolin-4-ylamino)phenol], the IC50 at B-Raf (V600E) is 4.5 nM; in the assay with A549, 2.4 ± 0.7 µM; with A375, 1.5 ± 0.1 µM; against C-Raf it was 197 nM; on B-Raf, 2.9 nM; with MDA-MB-231 it was 2.1 ± 0.1 µM. The same molecule returned an IC50 in the assay on COLO205 of 5.1 ± 1.4 µM. For the same molecule, on B-Raf, the inhibition at 1 µM was 94.6%.
Turning to `Oc1c(F)ccc(Nc2ncnc3ccc(-c4ccc5[nH]ncc5c4)cc23)c1F` [Compound 163, 3-(6-(1H-indazol-5-yl)quinazolin-4-ylamino)-2,6-difluorophenol], the IC50 against B-Raf (V600E) worked out at 4.5 nM; in the assay on A549 it was 26 ± 3.2 µM; in the assay with A375 it was 4.1 ± 0.7 µM; against C-Raf it was 256 nM; against B-Raf it was 2.4 nM; in the assay on MDA-MB-231, 17.8 ± 0.2 µM. Besides, the IC50 in the assay on COLO205 is 15.7 ± 2 µM. For the same molecule, the inhibition at 1 µM at B-Raf was 94.2%.
